Measured values: PubChem BioAssay (NCI)
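Five concentrations, 48 hours, 96-well plates. Definition used: TGI = concentration required for complete inhibition of growth.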

Key:
Experiment in all cases: inhibition of tumour cell growth, NCI panel, 48 h
HCC-2998 colon = tested on: HCC-2998 colon
UO-31 renal = tested on: UO-31 renal
NCI-H226 lung = tested on: NCI-H226 lung
K-562 leukemia = tested on: K-562 leukemia
HT29 colon = tested on: HT29 colon
A549 NSCLC = tested on: A549 NSCLC
SR leukemia = tested on: SR leukemia
NCI/ADR-RES ovarian = tested on: NCI/ADR-RES ovarian
UACC-62 melanoma = tested on: UACC-62 melanoma
MCF7 breast = tested on: MCF7 breast
NCI-H460 lung = tested on: NCI-H460 lung
HS 578T breast = tested on: HS 578T breast
COLO 205 colon = tested on: COLO 205 colon
MDA-N = tested on: MDA-N
MDA-MB-435 = tested on: MDA-MB-435
PC-3 prostate = tested on: PC-3 prostate
OVCAR-8 ovarian = tested on: OVCAR-8 ovarian
IGROV1 ovarian = tested on: IGROV1 ovarian
M14 melanoma = tested on: M14 melanoma
SF-539 CNS = tested on: SF-539 CNS
SK-MEL-5 melanoma = tested on: SK-MEL-5 melanoma
MOLT-4 leukemia = tested on: MOLT-4 leukemia
OVCAR-5 ovarian = tested on: OVCAR-5 ovarian
SK-MEL-28 melanoma = tested on: SK-MEL-28 melanoma
TK-10 renal = tested on: TK-10 renal
DU-145 prostate = tested on: DU-145 prostate
A498 renal = tested on: A498 renal
KM12 colon = tested on: KM12 colon
OVCAR-4 ovarian = tested on: OVCAR-4 ovarian
BT-549 breast = tested on: BT-549 breast
HOP-92 NSCLC = tested on: HOP-92 NSCLC
NCI-H23 lung = tested on: NCI-H23 lung
T-47D breast = tested on: T-47D breast
EKVX NSCLC = tested on: EKVX NSCLC
ACHN renal = tested on: ACHN renal
HL-60(TB) leukemia = tested on: HL-60(TB) leukemia
SF-268 CNS = tested on: SF-268 CNS
U251 CNS = tested on: U251 CNS
786-0 renal = tested on: 786-0 renal
MALME-3M melanoma = tested on: MALME-3M melanoma
MDA-MB-231 breast = tested on: MDA-MB-231 breast
NCI-H522 lung = tested on: NCI-H522 lung
RXF 393 renal = tested on: RXF 393 renal
HOP-62 NSCLC = tested on: HOP-62 NSCLC
LOX IMVI melanoma = tested on: LOX IMVI melanoma
SNB-19 CNS = tested on: SNB-19 CNS
HCT-15 colon = tested on: HCT-15 colon
SK-MEL-2 melanoma = tested on: SK-MEL-2 melanoma
CAKI-1 renal = tested on: CAKI-1 renal
SN12C renal = tested on: SN12C renal
CCRF-CEM leukemia = tested on: CCRF-CEM leukemia
HCT-116 colon = tested on: HCT-116 colon
RPMI-8226 leukemia = tested on: RPMI-8226 leukemia
UACC-257 melanoma = tested on: UACC-257 melanoma
SNB-75 CNS = tested on: SNB-75 CNS
SW-620 colon = tested on: SW-620 colon

Measured: TGI

O=c1ccn([C@@H]2C[C@H]2CO)c(=O)[nH]1
> 100 µM: HCC-2998 colon | UO-31 renal | NCI-H226 lung | K-562 leukemia | HT29 colon | A549 NSCLC | SR leukemia | NCI/ADR-RES ovarian | UACC-62 melanoma | MCF7 breast | NCI-H460 lung | HS 578T breast | COLO 205 colon | MDA-N | MDA-MB-435 | PC-3 prostate | OVCAR-8 ovarian | IGROV1 ovarian | M14 melanoma | SF-539 CNS | SK-MEL-5 melanoma | MOLT-4 leukemia | OVCAR-5 ovarian | SK-MEL-28 melanoma | TK-10 renal | DU-145 prostate | A498 renal | KM12 colon | OVCAR-4 ovarian | BT-549 breast | HOP-92 NSCLC | NCI-H23 lung | T-47D breast | EKVX NSCLC | ACHN renal | HL-60(TB) leukemia | SF-268 CNS | U251 CNS | 786-0 renal | MALME-3M melanoma | MDA-MB-231 breast | NCI-H522 lung | RXF 393 renal | HOP-62 NSCLC | LOX IMVI melanoma | SNB-19 CNS | HCT-15 colon | SK-MEL-2 melanoma | CAKI-1 renal | SN12C renal | CCRF-CEM leukemia | HCT-116 colon | RPMI-8226 leukemia | UACC-257 melanoma | SNB-75 CNS | SW-620 colon
